This note sets out measurements from ChEMBL document CHEMBL1926625, “Identification of benzoxazin-3-one derivatives as novel, potent, and selective nonsteroidal mineralocorticoid receptor antagonists” (J Med Chem, 2011).

In test [1] the target is T1, Glucocorticoid receptor (Homo sapiens, UniProt P04150).
T1 sequence (P04150 whole entry): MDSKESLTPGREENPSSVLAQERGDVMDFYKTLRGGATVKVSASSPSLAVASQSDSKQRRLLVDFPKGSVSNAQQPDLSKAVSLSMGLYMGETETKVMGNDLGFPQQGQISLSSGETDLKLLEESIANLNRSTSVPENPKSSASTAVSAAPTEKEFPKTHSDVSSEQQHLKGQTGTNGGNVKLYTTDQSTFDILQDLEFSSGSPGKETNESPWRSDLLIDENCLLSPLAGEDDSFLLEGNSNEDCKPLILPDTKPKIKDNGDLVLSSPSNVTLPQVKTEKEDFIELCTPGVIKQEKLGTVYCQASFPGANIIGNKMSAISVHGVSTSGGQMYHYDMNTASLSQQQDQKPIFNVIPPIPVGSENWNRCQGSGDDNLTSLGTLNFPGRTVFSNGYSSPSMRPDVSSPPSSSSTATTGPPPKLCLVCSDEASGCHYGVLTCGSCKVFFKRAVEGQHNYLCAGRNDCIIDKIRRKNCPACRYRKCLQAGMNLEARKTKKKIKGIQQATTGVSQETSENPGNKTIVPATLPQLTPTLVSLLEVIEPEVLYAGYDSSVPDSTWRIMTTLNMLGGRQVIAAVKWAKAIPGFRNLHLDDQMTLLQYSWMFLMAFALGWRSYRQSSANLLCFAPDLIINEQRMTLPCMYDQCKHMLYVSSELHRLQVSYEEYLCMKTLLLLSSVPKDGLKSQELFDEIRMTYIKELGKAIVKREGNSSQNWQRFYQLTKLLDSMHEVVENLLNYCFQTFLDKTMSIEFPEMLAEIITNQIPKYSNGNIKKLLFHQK
Put plainly: Displacement of [3H]dexomethasone from GR. For orientation: Loss of bound radioactivity is the signal in a displacement assay; it reports binding, not function.

Test [2] concerns the target T2, Androgen receptor (Homo sapiens, UniProt P10275).
T2 sequence (P10275 whole entry): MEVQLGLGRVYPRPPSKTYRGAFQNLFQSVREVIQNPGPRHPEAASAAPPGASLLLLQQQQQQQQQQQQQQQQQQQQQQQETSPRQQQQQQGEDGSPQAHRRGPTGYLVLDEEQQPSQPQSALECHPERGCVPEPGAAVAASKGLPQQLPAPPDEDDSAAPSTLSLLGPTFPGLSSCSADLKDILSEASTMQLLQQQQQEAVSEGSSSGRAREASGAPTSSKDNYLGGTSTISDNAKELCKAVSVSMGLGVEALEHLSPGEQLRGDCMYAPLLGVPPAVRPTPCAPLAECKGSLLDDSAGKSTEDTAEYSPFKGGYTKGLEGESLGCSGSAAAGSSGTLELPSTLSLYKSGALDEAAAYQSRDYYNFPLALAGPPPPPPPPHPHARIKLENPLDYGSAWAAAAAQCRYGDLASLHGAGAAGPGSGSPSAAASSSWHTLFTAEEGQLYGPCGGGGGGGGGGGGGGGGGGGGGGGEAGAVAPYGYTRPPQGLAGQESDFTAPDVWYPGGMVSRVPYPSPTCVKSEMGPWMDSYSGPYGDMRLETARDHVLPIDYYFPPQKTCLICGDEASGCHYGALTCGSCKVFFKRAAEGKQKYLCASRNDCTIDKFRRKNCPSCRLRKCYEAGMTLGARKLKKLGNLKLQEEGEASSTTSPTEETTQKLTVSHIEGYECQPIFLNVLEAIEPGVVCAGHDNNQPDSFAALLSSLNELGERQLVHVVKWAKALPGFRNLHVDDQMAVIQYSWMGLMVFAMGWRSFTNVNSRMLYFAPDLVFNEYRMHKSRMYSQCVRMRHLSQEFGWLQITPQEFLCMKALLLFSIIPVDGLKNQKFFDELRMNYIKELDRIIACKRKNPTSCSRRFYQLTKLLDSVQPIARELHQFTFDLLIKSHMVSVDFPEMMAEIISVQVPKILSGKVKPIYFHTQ
Put plainly: Displacement of [3H]testosterone from AR.

The target of test [3] is T3, Progesterone receptor (Homo sapiens, UniProt P06401).
T3 sequence (P06401 whole entry): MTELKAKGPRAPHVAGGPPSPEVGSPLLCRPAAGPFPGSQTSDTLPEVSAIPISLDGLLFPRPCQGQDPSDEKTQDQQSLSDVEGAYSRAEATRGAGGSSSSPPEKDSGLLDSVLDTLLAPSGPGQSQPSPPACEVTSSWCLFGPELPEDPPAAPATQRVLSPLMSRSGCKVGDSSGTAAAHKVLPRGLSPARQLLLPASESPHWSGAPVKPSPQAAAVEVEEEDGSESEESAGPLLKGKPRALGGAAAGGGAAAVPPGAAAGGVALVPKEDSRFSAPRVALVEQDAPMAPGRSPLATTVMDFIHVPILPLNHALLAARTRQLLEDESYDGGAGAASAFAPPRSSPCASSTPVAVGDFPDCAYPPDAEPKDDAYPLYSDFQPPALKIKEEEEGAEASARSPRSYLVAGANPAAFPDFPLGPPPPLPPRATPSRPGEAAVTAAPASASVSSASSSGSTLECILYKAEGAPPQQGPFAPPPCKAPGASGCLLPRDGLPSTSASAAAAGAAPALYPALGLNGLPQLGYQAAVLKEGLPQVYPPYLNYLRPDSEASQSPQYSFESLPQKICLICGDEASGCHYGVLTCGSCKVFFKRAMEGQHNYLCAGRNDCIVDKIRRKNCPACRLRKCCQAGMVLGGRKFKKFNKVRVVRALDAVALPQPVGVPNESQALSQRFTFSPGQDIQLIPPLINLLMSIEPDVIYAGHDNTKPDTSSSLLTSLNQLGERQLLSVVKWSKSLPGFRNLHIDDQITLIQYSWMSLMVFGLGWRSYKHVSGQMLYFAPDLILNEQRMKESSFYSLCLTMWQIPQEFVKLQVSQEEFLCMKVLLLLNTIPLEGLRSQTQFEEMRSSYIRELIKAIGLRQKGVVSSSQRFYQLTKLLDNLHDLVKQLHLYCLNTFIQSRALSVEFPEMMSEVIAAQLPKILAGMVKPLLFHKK
As to the kind of experiment: Displacement of [3H]progesterone from PR.

Test [4] concerns the target T4, Mineralocorticoid receptor (Homo sapiens, UniProt P08235).
T4 sequence (P08235 whole entry): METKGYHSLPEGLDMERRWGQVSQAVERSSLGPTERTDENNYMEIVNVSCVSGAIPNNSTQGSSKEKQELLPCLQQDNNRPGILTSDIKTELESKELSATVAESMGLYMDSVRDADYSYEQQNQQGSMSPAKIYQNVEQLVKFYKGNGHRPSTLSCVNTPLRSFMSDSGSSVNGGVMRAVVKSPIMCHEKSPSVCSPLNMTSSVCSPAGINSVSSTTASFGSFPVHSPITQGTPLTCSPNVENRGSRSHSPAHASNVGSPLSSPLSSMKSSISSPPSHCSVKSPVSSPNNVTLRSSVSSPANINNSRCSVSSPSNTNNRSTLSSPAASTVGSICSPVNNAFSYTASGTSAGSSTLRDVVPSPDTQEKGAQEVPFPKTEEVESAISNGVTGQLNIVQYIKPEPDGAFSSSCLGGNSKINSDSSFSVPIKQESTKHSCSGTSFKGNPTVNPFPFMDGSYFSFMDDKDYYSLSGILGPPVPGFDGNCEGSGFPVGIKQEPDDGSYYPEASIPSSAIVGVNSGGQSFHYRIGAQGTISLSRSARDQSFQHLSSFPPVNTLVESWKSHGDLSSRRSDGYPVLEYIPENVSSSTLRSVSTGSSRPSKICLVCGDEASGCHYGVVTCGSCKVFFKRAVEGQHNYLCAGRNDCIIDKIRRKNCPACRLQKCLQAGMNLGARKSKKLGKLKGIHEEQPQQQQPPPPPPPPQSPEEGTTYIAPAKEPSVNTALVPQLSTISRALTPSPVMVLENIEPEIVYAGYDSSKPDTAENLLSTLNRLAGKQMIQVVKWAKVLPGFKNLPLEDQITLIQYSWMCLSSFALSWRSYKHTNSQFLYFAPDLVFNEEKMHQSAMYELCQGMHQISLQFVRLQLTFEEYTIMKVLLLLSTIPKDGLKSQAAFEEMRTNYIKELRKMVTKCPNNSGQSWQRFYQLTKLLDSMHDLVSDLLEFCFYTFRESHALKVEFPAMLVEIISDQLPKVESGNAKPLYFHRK
Put plainly: biochemical.
Description: Displacement of [3H]aldosterone from cytosolic human MR expressed in HEK293 cells after 16 hrs by scintillation counting

Test [5] deals with T4, Mineralocorticoid receptor.
Description: Antagonist activity at human MR transfected in human COS1 cells after 1 day by luciferase reporter gene assay

Where only a bound is given, the exact number is not on record here.

As for `O=C1COc2ccc(C3=Nn4cnnc4SC3)cc2N1`, the IC50 (as a rule, the concentration at which inhibition is half-maximal) is greater than 10000 nM in test [1], greater than 10000 nM in test [2], 1600 nM in test [3] and 2000 nM in test [4].

`CCCC1Sc2nncn2N=C1c1ccc2c(c1)NC(=O)CO2` (centres undefined) displayed a half-inhibitory concentration (IC50) in test [4] of 4100 nM.

In test [4], `O=C1COc2ccc(C3=Nn4cnnc4SC3Cc3ccccc3)cc2N1` (centres undefined) had an IC50 of 1300 nM.

For the molecule `O=C1COc2ccc(C3=Nn4cnnc4SC3c3ccccc3)cc2N1` (centres undefined), the figures for the IC50 in test [1], in test [2] and in test [3] were 5600 nM, 3600 nM and greater than 10000 nM, respectively.

Molecule `CC1(c2ccccc2)Sc2nncn2N=C1c1ccc2c(c1)NC(=O)CO2` (centres undefined) gave an IC50 in test [4] greater than 10000 nM.

Turning to `O=C1COc2ccc(C3=Nn4cnnc4SC3c3ccccc3F)cc2N1` (centres undefined), the IC50 was 5500 nM in test [1], 5900 nM in test [2], greater than 10000 nM in test [3] and 600 nM in test [4].

For the molecule `O=C1COc2ccc(C3=Nn4cnnc4SC3c3cccc(F)c3)cc2N1` (centres undefined), the IC50 was greater than 10000 nM in test [1], 4700 nM in test [2], greater than 10000 nM in test [3] and 310 nM in test [4].

Consider `O=C1COc2ccc(C3=Nn4ccnc4SC3c3ccccc3)cc2N1` (centres undefined), for which the IC50 amounted to 3500 nM in test [1], 95 nM in test [2], 350 nM in test [3] and 36 nM in test [4].

As to `O=C1COc2ccc(C3=Nc4ccccc4SC3c3ccccc3)cc2N1` (centres undefined), the IC50 came out at 950 nM in test [1], 1200 nM in test [2], 1400 nM in test [3] and 69 nM in test [4].

Consider `Cc1nc(-c2ccc3c(c2)NC(=O)CO3)c(-c2ccccc2)s1`, for which the IC50 in test [4] is greater than 10000 nM.

`Cc1nc(-c2ccc3c(c2)NC(=O)CO3)c(-c2ccccc2)[nH]1`: the IC50 in test [4] is greater than 10000 nM.

Take `Cc1cc(-c2ccc3c(c2)NC(=O)CO3)n(-c2ccccc2)n1`: the half-maximal inhibitory concentration (IC50) is greater than 10000 nM in test [1], greater than 10000 nM in test [2], greater than 10000 nM in test [3] and 5300 nM in test [4].

In the case of `CCc1cc(-c2ccc3c(c2)NC(=O)CO3)n(-c2ccc(F)cc2)n1`, in test [4], the IC50 turned out to be 960 nM.

Regarding `O=C1COc2ccc(-c3cc(C(F)(F)C(F)(F)F)nn3-c3ccc(F)cc3)cc2N1`, it took 570 nM to reach half-maximal inhibition in test [4] (IC50).

Consider `CC(C)c1cc(-c2ccc3c(c2)NC(=O)CO3)n(-c2ccc(F)cc2)n1`, for which the IC50 in test [4] was greater than 10000 nM.

As for `N#Cc1cc(-c2ccc3c(c2)NC(=O)CO3)n(-c2ccc(F)cc2)n1`, the IC50 in test [4] was determined as 920 nM.

Take `O=C1COc2ccc(-c3cc(CO)nn3-c3ccc(F)cc3)cc2N1`: half-maximal inhibition in test [4] (IC50) required 6800 nM.

Regarding `O=C1COc2ccc(-c3c(C(F)(F)F)cnn3-c3ccc(F)cc3)cc2N1`, in test [4], the IC50 turned out to be 2700 nM.

`O=C1COc2ccc(-c3cc(C(F)(F)F)nn3-c3ccccc3F)cc2N1` came in with an IC50 in test [4] of 440 nM.

Consider `O=C1COc2ccc(-c3cc(C(F)(F)F)nn3-c3cccc(F)c3)cc2N1`, for which half-maximal inhibition in test [4] (IC50) required 1100 nM.

In test [4], `O=C1COc2ccc(-c3cc(C(F)(F)F)nn3-c3ccccc3Cl)cc2N1` gave an IC50 of 430 nM. Against the preceding molecule, the IC50 is about 2.6-fold lower.

In turn, `O=C1COc2ccc(-c3cc(C(F)(F)F)nn3-c3ccc(Cl)cc3)cc2N1` yielded an IC50 in test [4] of 320 nM.

Turning to `Cc1ccccc1-n1nc(C(F)(F)F)cc1-c1ccc2c(c1)NC(=O)CO2`, the IC50 was 2500 nM in test [1]; greater than 10000 nM in test [2]; 4900 nM in test [3]; 80 nM in test [4]; 150 nM in test [5].

In test [4], `Cc1ccc(-n2nc(C(F)(F)F)cc2-c2ccc3c(c2)NC(=O)CO3)cc1` gave an IC50 of 590 nM.

`CCc1ccccc1-n1nc(C(F)(F)F)cc1-c1ccc2c(c1)NC(=O)CO2` displayed an IC50 in test [4] of 700 nM. The IC50 values of the last two molecules are within 1.5-fold of each other.

With `Cc1cc(F)ccc1-n1nc(C(F)(F)F)cc1-c1cc(F)c2c(c1)NC(=O)CO2`, the IC50 was 1700 nM in test [1]; greater than 10000 nM in test [2]; 1800 nM in test [3]; 76 nM in test [4]; 85 nM in test [5].

For `Cc1cc(F)ccc1-n1nc(C(F)(F)F)cc1-c1cc(Cl)c2c(c1)NC(=O)CO2`, the IC50 in test [1] turned out to be 200 nM; in test [2], 4500 nM; in test [3] it was 930 nM; in test [4], 12 nM; in test [5] it was 70 nM.

`Cc1cc(F)ccc1-n1nc(C(F)(F)F)cc1-c1cc(C)c2c(c1)NC(=O)CO2`: the IC50 in test [1] was 470 nM; in test [2] it was greater than 10000 nM; in test [3], 2400 nM; in test [4], 21 nM; in test [5] it was 15 nM.
